US12630515B2, “Small molecule prostagladin transport inhibitors” (ALBERT EINSTEIN COLLEGE OF MEDICINE, priority 2019, dated 2026)

Biological target: T1, rat PGT (Rattus norvegicus, UniProt Q00910)
T1 construct: expressed in transfected cells
Experiment: PGT inhibition: [3H]PGE2 uptake in MDCK cells stably transfected with rat PGT
Type: cell-based
Conditions: room temperature
Protocol: MDCK cells stably transfected with rat PGT ae seeded at 15-20% confluence on 96-well deepwell plates. The day on which the cells are seeded is considered day 1. PGE2 uptake experiments are conducted on day 4. All of the PGE2 uptake experiments are conducted at room temperature. On day 4, cells are washed twice with Waymouth buffer (135 mM NaCl, 13 mM H-Hepes, 13 mM Na-Hepes, 2.5 mM CaCl2, 1.2 mM MgCl2, 0.8 mM MgSO4, 5 mM KCl, and 28 mM D-glucose). Then 200 μL of Waymouth buffer containing [^3H]PGE2 (available from Perkin Elmer) is added to each well. At the designed time, the uptake of [^3H]PGE2 is stopped by aspiration of uptake buffer; followed by immediate washing twice with 500 μL of chilled Waymouth buffer. Cells are then lysed with 100 μL lysis buffer containing 0.25% SDS and 0.05 N NaOH. 1.5 mL of scintillation solution is added to each well, and intracellular [^3H]PGE2 is counted via a Beta Counter.
For preliminary testing of the compounds, 20 μL of Waymouth buffer containing the compound is added to each well; this was immediately followed by the addition of 180 μL of Waymouth buffer containing [^3H]PGE2. In each well, the total volume of uptake medium is 200 μL. Test compounds are first dissolved in organic solvent, such as EtOH, and then diluted in Waymouth buffer. The percent inhibition of [^3H]PGE2 uptake by compounds is calculated as [(uptakevehicle−uptakeinhibitor)÷(uptakevehicle)]×100.
To determine IC50 of each compound, Waymouth buffer containing various concentrations of the compound is added to each well; immediately followed by the addition of 180 μL of Waymouth buffer containing [^3H]PGE2. IC50 was calculated by fitting the following equation. y=m1-m1*(m0/(m2+m0)).

Row | SMILES | IC50 [nM]
1 | CCC(CC)(CCC(=O)O)c1csc(Nc2ccccc2Cl)n1 [Cmp. 8, 4-[2-(2-chloroanilino)thiazol-4-yl]-4-ethyl-hexanoic acid] | < 10000
2 | CCC(CC)(CCC(=O)O)c1nnc(Nc2ccc(C)cc2)o1 [compound 33, 4-ethyl-4-(5-(p-tolylamino)-1,3,4-oxadiazol-2-yl)hexanoic acid] | < 10000
3 | CCc1ncc(Nc2ccc(F)cc2F)nc1C(CC)(CC)CCC(=O)O [Cmp. 19, 4-[6-(2,4-difluoroanilino)-3-ethyl-pyrazin-2-yl]-4-ethyl-hexanoic acid] | < 1000
4 | CCOC(=O)C(CC)(CCC(=O)O)c1csc(Nc2ccc(F)cc2F)n1 (racemic) [Cmp. 6, 4-[2-(2,4-difluoroanilino)thiazol-4-yl]-4-ethoxycarbonyl-hexanoic acid] | < 10000
5 | CCC(CC)(CCC(=O)O)c1coc(Nc2ccc(C)cc2)n1 [compound 32, 4-ethyl-4-(2-(p-tolylamino)oxazol-4-yl)hexanoic acid] | < 100000
6 | CCOC(=O)C(CC)(CCC(=O)O)c1nc(Nc2ccc(Cl)cc2Cl)sc1C (racemic) [Cmp. 23, 4-[2-(2,4-dichloroanilino)-5-methyl-thiazol-4-yl]-4-ethoxycarbonyl-hexanoic acid] | < 1000
7 | CCOC(=O)C(CC)(CCC(=O)O)c1nc(Nc2ccccc2Cl)sc1Cl (racemic) [Cmp. 27 (RS), 4-[5-chloro-2-(2-chloroanilino)thiazol-4-yl]-4-ethoxycarbonyl-hexanoic acid] | < 1000
8 | CCC(CC)(CCC(=O)O)c1csc(Nc2cccc(OC)c2)n1 [Cmp. 9, 4-ethyl-4-[2-(3-methoxyanilino)thiazol-4-yl]hexanoic acid] | < 10000
9 | CCOC(=O)C(CC)(CCC(=O)O)c1nc(Nc2ccc(Cl)cc2Cl)sc1Br (racemic) [Cmp. 14b, 4-[5-bromo-2-(2,4-dichloroanilino)thiazol-4-yl]-4-ethoxycarbonyl-hexanoic acid] | < 1000
10 | CCC(CCC(=O)O)(COC)c1cncc(Nc2ccc(F)cc2F)n1 (racemic) [compound 38, 4-(6-((2,4-difluorophenyl)amino)pyrazin-2-yl)-4-(methoxymethyl)hexanoic acid] | < 10000
11 | CCC(CC)(CCC(=O)O)c1cncc(Nc2cc(F)c(F)cc2F)n1 [Cmp. 29, 4-ethyl-4-[6-(2,4,5-trifluoroanilino)pyrazin-2-yl]hexanoic acid] | < 1000
12 | CCOC(=O)C(CC)(CCC(=O)O)c1csc(Nc2ccc(C)cc2)n1 (racemic) [Cmp. 3, 4-ethoxycarbonyl-4-[2-(4-methylanilino)thiazol-4-yl]hexanoic acid] | < 20000
13 | CCOC(=O)C(CC)(CCC(=O)O)c1nc(Nc2ccc(Cl)cc2Cl)sc1Cl (racemic) [compound 40, 4-(5-chloro-2-((2,4-dichlorophenyl)amino)thiazol-4-yl)-4-(ethoxycarbonyl)hexanoic acid] | < 1000
14 | CCOC(=O)C(CC)(CCC(=O)O)c1nc(Nc2ccc(F)cc2F)sc1C (racemic) [compound 34, 4-(2-((2,4-difluorophenyl)amino)-5-methylthiazol-4-yl)-4-(ethoxycarbonyl)hexanoic acid] | < 10000
15 | CCC(CCC(=O)O)(C(=O)OCC(C)C)c1cncc(Nc2ccc(C)cc2)n1 (racemic) [compound 35, 4-(isobutoxycarbonyl)-4-(6-(p-tolylamino)pyrazin-2-yl)hexanoic acid] | < 10000
16 | CCC(CC)(CCC(=O)O)c1csc(Nc2ccc(C)cc2)n1 [Cmp. 2, 4-ethyl-4-[2-(4-methylanilino)thiazol-4-yl]hexanoic acid] | < 100000
17 | CCC(CC)(CCC(=O)O)c1nc(Nc2ccc(Cl)cc2Cl)sc1C [Cmp. 24, 4-[2-(2,4-dichloroanilino)-5-methyl-thiazol-4-yl]-4-ethyl-hexanoic acid] | < 1000
18 | CCC(CC)(CCC(=O)O)c1nc(Nc2ccc(F)cc2F)sc1C [Cmp. 21, 4-[2-(2,4-difluoroanilino)-5-methyl-thiazol-4-yl]-4-ethyl-hexanoic acid] | < 1000
19 | CCOC(=O)C(CC)(CCC(=O)O)c1csc(Nc2ccc(Cl)cc2Cl)n1 (racemic) [Cmp. 14a, 4-[2-(2,4-dichloroanilino)thiazol-4-yl]-4-ethoxycarbonyl-hexanoic acid] | < 1000
20 | CCC(CC)(CCC(=O)O)c1csc(Nc2ccc(C(F)(F)F)cc2)n1 [compound 31, 4-ethyl-4-(2-((4-(trifluoromethyl)phenyl)amino)thiazol-4-yl)hexanoic acid] | < 20000
21 | CCC(CC)(CCC(=O)O)c1cncc(Nc2ccc(F)cc2F)n1 [Cmp. 18, 4-[6-(2,4-difluoroanilino)pyrazin-2-yl]-4-ethyl-hexanoic acid] | < 1000
22 | CCC(CC)(CCC(=O)O)c1nc(Nc2ccc(F)cc2F)sc1Br [Cmp. 22b, 4-[5-bromo-2-(2,4-difluoroanilino)thiazol-4-yl]-4-ethyl-hexanoic acid] | < 1000
23 | CCC(CC)(CCC(=O)O)c1nc(Nc2ccccc2O)sc1C [Cmp. 10, 4-ethyl-4-[2-(2-hydroxyanilino)-5-methyl-thiazol-4-yl]hexanoic acid] | < 1000
24 | CCC(CC)(CCC(=O)O)c1csc(-c2ccccc2)n1 [compound 30, 4-ethyl-4-(2-phenylthiazol-4-yl)hexanoic acid] | < 10000

Results, then the compound that gave them:

Row | IC50 [nM] | SMILES
25 | < 10000 | CCOC(=O)C(CC)(CCC(=O)O)c1cncc(Nc2ccc(C)cc2)n1 (racemic) [Cmp. 5, 4-ethoxycarbonyl-4-[6-(4-methylanilino)pyrazin-2-yl]hexanoic acid]
26 | < 1000 | CCOC(=O)C(CC)(CCC(=O)O)c1cncc(Nc2cc(F)ccc2F)n1 (racemic) [Cmp. 20, 4-[6-(2,5-difluoroanilino)pyrazin-2-yl]-4-ethoxycarbonyl-hexanoic acid]
27 | < 1000 | CCOC(=O)C(CC)(CCC(=O)O)c1cncc(Nc2ccccc2OC)n1 (racemic) [Cmp. 17, 4-ethoxycarbonyl-4-[6-(2-methoxyanilino)pyrazin-2-yl]hexanoic acid]
28 | < 1000 | CCC(CC)(CCC(=O)O)c1cncc(Nc2ccccc2Cl)n1 [Cmp. 28, 4-[6-(2-chloroanilino)pyrazin-2-yl]-4-ethyl-hexanoic acid]
29 | < 10000 | CCOC(=O)C(CC)(CCC(=O)O)c1ccnc(Nc2ccc(C)cc2)n1 (stereo not drawn) [Cmp. 13, 4-ethoxycarbonyl-4-[2-(4-methylanilino)pyrimidin-4-yl]hexanoic acid]
30 | < 1000 | CCOC(=O)C(CC)(CCC(=O)O)c1csc(Nc2ccccc2O)n1 (racemic) [Cmp. 1, 4-ethoxycarbonyl-4-[2-(2-hydroxyanilino)thiazol-4-yl]hexanoic acid]
31 | < 10000 | CCOC(=O)C(CCC(=O)O)(CC1CC1)c1cncc(Nc2ccc(C)cc2)n1 (racemic) [compound 36, 4-(cyclopropylmethyl)-5-ethoxy-5-oxo-4-(6-(p-tolylamino)pyrazin-2-yl)pentanoic acid]
32 | < 10000 | CCC(CC)(CCC(=O)O)c1csc(Nc2ccccc2OC)n1 (racemic) [Cmp. 7, 4-ethyl-4-[2-(2-methoxyanilino)thiazol-4-yl]hexanoic acid]
33 | < 1000 | CCOC(=O)C(CC)(CCC(=O)O)c1cncc(Nc2ccc(O)c(F)c2)n1 (racemic) [compound 37, 4-(ethoxycarbonyl)-4-(6-((3-fluoro-4-hydroxyphenyl)amino)pyrazin-2-yl)hexanoic acid]
34 | < 1000 | CCOC(=O)C(CC)(CCC(=O)O)c1nc(Nc2ccccc2Cl)sc1Cl (single isomer, unassigned) [27 (enantiomer 1)]
35 | < 1000 | CCOC(=O)C(CC)(CCC(=O)O)c1cncc(Nc2ccc(F)cc2F)n1 (racemic) [Cmp. 11, 4-[6-(2,4-difluoroanilino)pyrazin-2-yl]-4-ethoxycarbonyl-hexanoic acid]
36 | < 1000 | CCC(CCC(=O)O)(C(=O)OC1(C)CC1)c1cncc(Nc2ccc(F)cc2F)n1 (racemic) [compound 39, 4-(6-((2,4-difluorophenyl)amino)pyrazin-2-yl)-4-((1-methylcyclopropoxy)carbonyl)hexanoic acid]
